# Measurements as given in patent publication US6642392B1 (priority 1997, dated 2003).
# Legend:
# Assay type in all cases: in vivo
# Puccinia recondita = experiment: Test B: wheat leaf rust, preventive spray on wheat seedlings; settings: wheat leaf rust; tested at 40 ppm
# Method in brief: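 Preventive test: P. recondita spores were applied one day after a run-off spray of compound suspension on wheat seedlings. Plants had 24 h at 20 °C in saturated air plus 6 days in a 20 °C growth chamber. Scoring is % disease control (100 = full) relative to controls.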
# [1] = system: Eiysiphe graminis f. sp. tritici; experiment: Test A: wheat powdery mildew, preventive spray on wheat seedlings; settings: wheat powdery mildew; tested at 40 ppm
# Method in brief: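 Preventive test: seedlings inoculated with powdery mildew spores one day after run-off spraying of a suspension. Ratings after 7 days in a 20° C growth chamber express percent disease control versus controls.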
# Phytophthora infestans = settings: tomato late blight; tested at 40 ppm
# Botrytis cinerea = experiment: Test E: gray mold, preventive spray on cucumber seedlings; settings: gray mold on cucumber; tested at 40 ppm
# Method in brief: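 Preventive spray on cucumber seedlings used a suspension (3% acetone, 250 ppm Trem 014), applied to run-off one day before inoculation with Botrytis cinerea spores. Plants were held 48 h at 20° C in saturated air, then 5 days at 20° C. Percent disease control was scored relative to untreated plants.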
# Pyricularia oryzae = settings: rice blast; tested at 40 ppm
Structure (SMILES),Test B disease control rating (Puccinia recondita) [%],Test A disease control rating [1] [%],Test D disease control rating (Phytophthora infestans) [%],Test E disease control rating (Botrytis cinerea) [%],Test C disease control rating (Pyricularia oryzae) [%]
CCC1(C(=O)NC(C)COc2ccccc2)C(C)C1(Cl)Cl (mixture of isomers) [77b],0,33,0,0,74
CCC1(C(=O)NC(C)COc2ccc(F)cc2)C(C)C1(Cl)Cl (mixture of isomers) [80a],0,0,20,0,86
